# US8435980B2 (AbbVie Inc., priority 2009, dated 2013)
# Biological target: T1, Cdc7 (BEV coexpressed huCDC7/DBF4) (Homo sapiens, UniProt O00311)
# T1 construct: made in house; host or cells: BEV (baculovirus expression vector) co-expression; insect cells are implied but no cell line is named
# Test: Cdc7 enzyme inhibition assay ([33P]ATP, biotinylated peptide substrate, FlashPlate)
# Type: biochemical
# Details: not given
# Method: Cdc7 (BEV coexpressed huCDC7/DBF4) is prepared internally. Cdc7 assays are conducted as follows with final concentrations as listed. […] Reactions are quenched after 1 hr by the addition of 90 μL stop buffer (50 mM EDTA, 2M NaCl). […] (Ki) for exemplary compounds.
# T1 sequence (O00311 whole entry): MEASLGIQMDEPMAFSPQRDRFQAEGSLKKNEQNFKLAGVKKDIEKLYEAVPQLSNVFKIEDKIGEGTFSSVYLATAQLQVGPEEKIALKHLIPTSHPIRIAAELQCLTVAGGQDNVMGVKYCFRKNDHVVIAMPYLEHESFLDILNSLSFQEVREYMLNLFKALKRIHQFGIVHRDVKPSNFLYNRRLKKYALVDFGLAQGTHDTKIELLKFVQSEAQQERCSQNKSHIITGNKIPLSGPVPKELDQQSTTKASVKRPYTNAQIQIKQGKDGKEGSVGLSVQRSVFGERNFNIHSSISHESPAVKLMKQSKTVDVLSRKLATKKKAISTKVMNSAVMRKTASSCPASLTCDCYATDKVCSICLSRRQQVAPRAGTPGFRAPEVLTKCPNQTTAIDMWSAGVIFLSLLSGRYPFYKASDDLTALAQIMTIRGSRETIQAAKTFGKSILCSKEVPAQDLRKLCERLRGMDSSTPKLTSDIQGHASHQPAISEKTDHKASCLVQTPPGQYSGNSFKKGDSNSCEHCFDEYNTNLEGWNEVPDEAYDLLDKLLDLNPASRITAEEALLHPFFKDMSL
# T1 sequence (Q9UBU7 whole entry partner): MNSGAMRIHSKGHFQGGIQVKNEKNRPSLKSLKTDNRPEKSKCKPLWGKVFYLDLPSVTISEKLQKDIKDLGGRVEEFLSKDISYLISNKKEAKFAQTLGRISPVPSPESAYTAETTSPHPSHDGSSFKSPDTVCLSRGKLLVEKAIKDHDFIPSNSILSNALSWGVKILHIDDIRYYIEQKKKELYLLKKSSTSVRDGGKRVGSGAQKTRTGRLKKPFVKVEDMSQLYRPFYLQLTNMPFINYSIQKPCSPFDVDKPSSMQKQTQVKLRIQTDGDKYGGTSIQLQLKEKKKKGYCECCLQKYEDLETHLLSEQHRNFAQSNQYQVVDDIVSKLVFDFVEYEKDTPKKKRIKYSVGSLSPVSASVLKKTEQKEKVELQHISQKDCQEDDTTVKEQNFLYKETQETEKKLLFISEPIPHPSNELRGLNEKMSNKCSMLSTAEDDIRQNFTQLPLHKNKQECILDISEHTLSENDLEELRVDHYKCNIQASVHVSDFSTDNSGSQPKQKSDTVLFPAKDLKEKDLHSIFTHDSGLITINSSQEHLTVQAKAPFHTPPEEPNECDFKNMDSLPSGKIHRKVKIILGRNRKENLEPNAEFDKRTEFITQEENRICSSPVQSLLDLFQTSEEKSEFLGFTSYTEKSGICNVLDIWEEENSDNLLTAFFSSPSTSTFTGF
row,Compound,Ki
1,"CC(=O)NC1CCCC(Nc2cc(-c3c[nH]c4ncccc34)cc(Cl)n2)C1 (stereo not drawn) [Example 35, N-(3-{[6-chloro-4-(1H-pyrrolo[2,3-b]pyridin-3-yl)pyridin-2-yl]amino}cyclohexyl)acetamide]",0.01 to 0.1 µM
2,"N[C@H]1CC[C@H](Nc2nc(Cl)cc(-c3c[nH]c4ncccc34)n2)CC1 [Example 42, trans-N-[4-chloro-6-(1H-pyrrolo[2,3-b]pyridin-3-yl)pyrimidin-2-yl]cyclohexane-1,4-diamine]",< 0.01 µM

# Same assay, conditions: Table 3; enzyme inhibition data (Ki)
row,Ki,Compound
1,< 0.01 µM,"CN1CCC(C2CCC(Nc3cc(-c4c[nH]c5ncccc45)cc(Cl)n3)CC2)C1 (stereo not drawn) [Example 197, 6-chloro-N-[4-(1-methylpyrrolidin-3-yl)cyclohexyl]-4-(1H-pyrrolo[2,3-b]pyridin-3-yl)pyridin-2-amine]"
2,< 0.01 µM,"O=S(=O)(Cc1ccccc1)NC1CCC(Nc2cc(-c3c[nH]c4ncccc34)cc(Cl)n2)CC1 (stereo not drawn) [Example 53, N-(4-{[6-chloro-4-(1H-pyrrolo[2,3-b]pyridin-3-yl)pyridin-2-yl]amino}cyclohexyl)-1-phenylmethanesulfonamide]"
3,< 0.01 µM,"O=C(N[C@H]1CC[C@H](Nc2cc(-c3c[nH]c4ncccc34)cc(Cl)n2)CC1)c1ccc(F)cc1F [Example 202, N-(trans-4-{[6-chloro-4-(1H-pyrrolo[2,3-b]pyridin-3-yl)pyridin-2-yl]amino}cyclohexyl)-2,4-difluorobenzamide]"
4,< 0.01 µM,"CCN1CCC(C(=O)N[C@H]2CC[C@H](Nc3cc(-c4c[nH]c5ncc(OC)cc45)cc(Cl)n3)CC2)C1 (relative stereo) [Example 219, N-(trans-4-{[6-chloro-4-(5-methoxy-1H-pyrrolo[2,3-b]pyridin-3-yl)pyridin-2-yl]amino}cyclohexyl)-1-ethylpyrrolidine-3-carboxamide]"
5,< 0.01 µM,"Clc1cc(-c2c[nH]c3ncccc23)cc(NC2CCCC(N3CCCC3)C2)n1 (stereo not drawn) [Example 323, 6-chloro-N-[3-(pyrrolidin-1-yl)cyclohexyl]-4-(1H-pyrrolo[2,3-b]pyridin-3-yl)pyridin-2-amine]"
6,< 0.01 µM,"CN1CCC(C2CCC(N(C)c3cc(-c4c[nH]c5ncccc45)cc(Cl)n3)CC2)C1 (stereo not drawn) [Example 380, 6-chloro-N-methyl-N-[4-(1-methylpyrrolidin-3-yl)cyclohexyl]-4-(1H-pyrrolo[2,3-b]pyridin-3-yl)pyridin-2-amine]"
7,< 0.01 µM,"O=C(NC1CCCC1)NC1CCCC(Nc2cc(-c3c[nH]c4ncccc34)cc(Cl)n2)C1 (stereo not drawn) [Example 80, 1-(3-{[6-chloro-4-(1H-pyrrolo[2,3-b]pyridin-3-yl)pyridin-2-yl]amino}cyclohexyl)-3-cyclopentylurea]"
8,< 0.01 µM,"O=C1c2ccccc2C(=O)N1CCS(=O)(=O)NC1CCCC(Nc2cc(-c3c[nH]c4ncccc34)cc(Cl)n2)C1 (stereo not drawn) [Example 353, N-(3-{[6-chloro-4-(1H-pyrrolo[2,3-b]pyridin-3-yl)pyridin-2-yl]amino}cyclohexyl)-2-(1,3-dioxo-1,3-dihydro-2H-isoindol-2-yl)ethanesulfonamide]"
9,< 0.01 µM,"O=C(CNC(=O)c1ccccc1)NC1CCCC(Nc2cc(-c3c[nH]c4ncccc34)cc(Cl)n2)C1 (stereo not drawn) [Example 73, N-{2-[(3-{[6-chloro-4-(1H-pyrrolo[2,3-b]pyridin-3-yl)pyridin-2-yl]-amino}cyclohexyl)amino]-2-oxoethyl}benzamide]"
10,< 0.01 µM,"C[C@@H](C(=O)N[C@H]1CC[C@H](Nc2cc(-c3c[nH]c4ncccc34)cc(Cl)n2)CC1)N(C)C [Example 127, N-(trans-4-{[6-chloro-4-(1H-pyrrolo[2,3-b]pyridin-3-yl)pyridin-2-yl]amino}cyclohexyl)-N^2,N^2-dimethyl-L-alaninamide]"

# Continued, compound first:
row,Compound,Ki
1,"CN(C)CCCNc1cc(-c2c[nH]c3ncccc23)cc(Cl)n1 [Example 391, N′-[6-chloro-4-(1H-pyrrolo[2,3-b]pyridin-3-yl)pyridin-2-yl]-N,N-dimethylpropane-1,3-diamine]",< 0.01 µM
2,"Clc1cc(-c2c[nH]c3ncccc23)cc(Nc2ccc(OCc3ccccc3)cc2)n1 [Example 408, N-[4-(benzyloxy)phenyl]-6-chloro-4-(1H-pyrrolo[2,3-b]pyridin-3-yl)pyridin-2-amine]",< 0.01 µM
3,"CCCCS(=O)(=O)N[C@H]1CC[C@H](Nc2cc(-c3c[nH]c4ncc(OC)cc34)cc(Cl)n2)CC1 [Example 244, N-(trans-4-{[6-chloro-4-(5-methoxy-1H-pyrrolo[2,3-b]pyridin-3-yl)pyridin-2-yl]amino}cyclohexyl)butane-1-sulfonamide]",< 0.01 µM
4,"{4-[(4-{[6-chloro-4-(1H-pyrrolo[2,3-b]pyridin-3-yl)pyridin-2-yl]amino}cyclohexyl)amino]piperidin-1-yl}(phenyl)methanone [Example 177]",< 0.01 µM
5,"CS(=O)(=O)c1ccc(CNc2cc(-c3c[nH]c4ncccc34)cc(Cl)n2)cc1 [Example 417, 6-chloro-N-[4-(methylsulfonyl)benzyl]-4-(1H-pyrrolo[2,3-b]pyridin-3-yl)pyridin-2-amine]",< 0.01 µM
6,"COc1cnc2[nH]cc(-c3cc(Cl)nc(N[C@H]4CC[C@H](NC(=O)C5CN(Cc6ccccc6)C5)CC4)c3)c2c1 [Example 217, 1-benzyl-N-(trans-4-{[6-chloro-4-(5-methoxy-1H-pyrrolo[2,3-b]pyridin-3-yl)pyridin-2-yl]amino}cyclohexyl)azetidine-3-carboxamide]",< 0.01 µM
7,"NCCOCCNc1nc(Cl)cc(-c2c[nH]c3ncccc23)n1 [Example 475, N-[2-(2-aminoethoxy)ethyl]-4-chloro-6-(1H-pyrrolo[2,3-b]pyridin-3-yl)pyrimidin-2-amine]",< 0.01 µM
8,"COc1cnc2[nH]cc(-c3cc(Cl)nc(N[C@H]4CC[C@H](N)CC4)c3)c2c1 [Example 213, trans-N-[6-chloro-4-(5-methoxy-1H-pyrrolo[2,3-b]pyridin-3-yl)pyridin-2-yl]cyclohexane-1,4-diamine]",< 0.01 µM
9,"Clc1cc(-c2c[nH]c3ncccc23)cc(NCc2ccc3c(c2)OCO3)n1 [Example 400, N-(1,3-benzodioxol-5-ylmethyl)-6-chloro-4-(1H-pyrrolo[2,3-b]pyridin-3-yl)pyridin-2-amine]",< 0.01 µM
10,"Clc1cc(-c2c[nH]c3ncc(-c4cnn(CCN5CCOCC5)c4)cc23)cc(NC2CCCCC2)n1 [Example 187, 6-chloro-N-cyclohexyl-4-(5-{1-[2-(morpholin-4-yl)ethyl]-1H-pyrazol-4-yl}-1H-pyrrolo[2,3-b]pyridin-3-yl)pyridin-2-amine]",< 0.01 µM
11,"CCN1CCCC(CNc2cc(-c3c[nH]c4ncccc34)cc(Cl)n2)C1 (stereo not drawn) [Example 94, 6-chloro-N-[(1-ethylpiperidin-3-yl)methyl]-4-(1H-pyrrolo[2,3-b]pyridin-3-yl)pyridin-2-amine]",< 0.01 µM
12,"CCCS(=O)(=O)NCC(C)(C)CNc1cc(-c2c[nH]c3ncccc23)cc(Cl)n1 [Example 309, N-(3-{[6-chloro-4-(1H-pyrrolo[2,3-b]pyridin-3-yl)pyridin-2-yl]amino}-2,2-dimethylpropyl)propane-1-sulfonamide]",< 0.01 µM
